# Source: PubChem BioAssay (NCI)
#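 Abbreviation: GI50, concentration required for 50% inhibition of growth. The concentration for full growth arrest is given as TGI.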
# Columns and labels:
# Assay in all cases: inhibition of tumour cell growth, NCI panel, 384-well format
# SK-MEL-2 melanoma = tested on: SK-MEL-2 melanoma
# OVCAR-3 ovarian = tested on: OVCAR-3 ovarian
# A549 NSCLC = tested on: A549 NSCLC
# NCI-H23 lung = tested on: NCI-H23 lung
# MALME-3M melanoma = tested on: MALME-3M melanoma
# SNB-75 CNS = tested on: SNB-75 CNS
# HOP-92 NSCLC = tested on: HOP-92 NSCLC
# HL-60(TB) leukemia = tested on: HL-60(TB) leukemia
# U251 glioblastoma = tested on: U251 glioblastoma
# OVCAR-8 ovarian = tested on: OVCAR-8 ovarian
# MDA-MB-231 breast = tested on: MDA-MB-231 breast
# TK-10 renal = tested on: TK-10 renal
# HOP-62 NSCLC = tested on: HOP-62 NSCLC
# T-47D breast = tested on: T-47D breast
# SF-539 CNS = tested on: SF-539 CNS
# A498 renal = tested on: A498 renal
# OVCAR-4 ovarian = tested on: OVCAR-4 ovarian
# RXF 393 renal = tested on: RXF 393 renal
# HCT-15 colon = tested on: HCT-15 colon
# EKVX NSCLC = tested on: EKVX NSCLC
# DU-145 prostate = tested on: DU-145 prostate
# COLO 205 colon = tested on: COLO 205 colon
# IGROV1 ovarian = tested on: IGROV1 ovarian
# UO-31 renal = tested on: UO-31 renal
# NCI-H226 lung = tested on: NCI-H226 lung
# KM12 colon = tested on: KM12 colon
# NCI-H522 lung = tested on: NCI-H522 lung
# K-562 leukemia = tested on: K-562 leukemia
# ACHN renal = tested on: ACHN renal
# SW-620 colon = tested on: SW-620 colon
# M14 melanoma = tested on: M14 melanoma
# NCI-H460 NSCLC = tested on: NCI-H460 NSCLC
# PC-3 prostate = tested on: PC-3 prostate
# SF-295 CNS = tested on: SF-295 CNS
# SN12C renal = tested on: SN12C renal
# SK-MEL-5 melanoma = tested on: SK-MEL-5 melanoma
# SK-MEL-28 melanoma = tested on: SK-MEL-28 melanoma
# 786-0 renal = tested on: 786-0 renal
# HT29 colon = tested on: HT29 colon
# MOLT-4 leukemia = tested on: MOLT-4 leukemia
# CAKI-1 renal = tested on: CAKI-1 renal
# BT-549 breast = tested on: BT-549 breast
# MDA-MB-435 melanoma = tested on: MDA-MB-435 melanoma
# HCT-116 colon = tested on: HCT-116 colon
# SR leukemia = tested on: SR leukemia
# MDA-MB-468 breast = tested on: MDA-MB-468 breast
# UACC-62 melanoma = tested on: UACC-62 melanoma
# SNB-19 CNS = tested on: SNB-19 CNS
# HS 578T breast = tested on: HS 578T breast
# SF-268 CNS = tested on: SF-268 CNS
# NCI-H322M lung = tested on: NCI-H322M lung
# MCF7 breast = tested on: MCF7 breast
# SK-OV-3 ovarian = tested on: SK-OV-3 ovarian
# OVCAR-5 ovarian = tested on: OVCAR-5 ovarian
# UACC-257 melanoma = tested on: UACC-257 melanoma
compound,measurement,setting,value
COC1(C(=O)N[C@@H](C)c2ccc(-n3cc(F)cn3)nc2)CCC(c2nc(C)cc(Nc3cc(C)[nH]n3)n2)CC1 (stereo not given in full),GI50,SK-MEL-2 melanoma,11 µM
same,TGI,SK-MEL-2 melanoma,23.1 µM
same,GI50,OVCAR-3 ovarian,1.67 µM
same,TGI,OVCAR-3 ovarian,12.8 µM
same,GI50,A549 NSCLC,2.41 µM
same,TGI,A549 NSCLC,12 µM
same,GI50,NCI-H23 lung,0.629 µM
same,TGI,NCI-H23 lung,10.6 µM
same,GI50,MALME-3M melanoma,11.3 µM
same,TGI,MALME-3M melanoma,23.6 µM
same,GI50,SNB-75 CNS,0.285 µM
same,TGI,SNB-75 CNS,1.32 µM
same,GI50,HOP-92 NSCLC,0.691 µM
same,TGI,HOP-92 NSCLC,2.67 µM
same,GI50,HL-60(TB) leukemia,5.4 µM
same,TGI,HL-60(TB) leukemia,18.5 µM
same,GI50,U251 glioblastoma,1.54 µM
same,TGI,U251 glioblastoma,12.3 µM
same,GI50,OVCAR-8 ovarian,3.35 µM
same,TGI,OVCAR-8 ovarian,12.9 µM
same,GI50,MDA-MB-231 breast,2.6 µM
same,TGI,MDA-MB-231 breast,14 µM
same,GI50,TK-10 renal,1.4 µM
same,TGI,TK-10 renal,3.93 µM
same,GI50,HOP-62 NSCLC,1.46 µM
same,TGI,HOP-62 NSCLC,6.13 µM
same,GI50,T-47D breast,2.28 µM
same,TGI,T-47D breast,10.7 µM
same,GI50,SF-539 CNS,0.226 µM
same,TGI,SF-539 CNS,1.12 µM
same,GI50,A498 renal,1.83 µM
same,TGI,A498 renal,4.4 µM
same,GI50,OVCAR-4 ovarian,2.12 µM
same,TGI,OVCAR-4 ovarian,17.8 µM
same,GI50,RXF 393 renal,0.138 µM
same,TGI,RXF 393 renal,0.671 µM
same,GI50,HCT-15 colon,4.58 µM
same,TGI,HCT-15 colon,17.2 µM
same,GI50,EKVX NSCLC,0.545 µM
same,TGI,EKVX NSCLC,2.29 µM
same,GI50,DU-145 prostate,1.72 µM
same,TGI,DU-145 prostate,4.04 µM
same,GI50,COLO 205 colon,13.8 µM
same,TGI,COLO 205 colon,26.9 µM
same,GI50,IGROV1 ovarian,0.304 µM
same,TGI,IGROV1 ovarian,1.37 µM
same,GI50,UO-31 renal,1.14 µM
same,TGI,UO-31 renal,2.78 µM
same,GI50,NCI-H226 lung,0.246 µM
same,TGI,NCI-H226 lung,2.08 µM
same,GI50,KM12 colon,5.12 µM
same,TGI,KM12 colon,18.3 µM
same,GI50,NCI-H522 lung,1.19 µM
same,TGI,NCI-H522 lung,3.11 µM
same,GI50,K-562 leukemia,1.7 µM
same,TGI,K-562 leukemia,11.6 µM
same,GI50,ACHN renal,0.896 µM
same,TGI,ACHN renal,4.45 µM
same,GI50,SW-620 colon,2.58 µM
same,TGI,SW-620 colon,17 µM
same,GI50,M14 melanoma,11.3 µM
same,TGI,M14 melanoma,23.4 µM
same,GI50,NCI-H460 NSCLC,0.0527 µM
same,TGI,NCI-H460 NSCLC,13.7 µM
same,GI50,PC-3 prostate,3.42 µM
same,TGI,PC-3 prostate,15.7 µM
same,GI50,SF-295 CNS,1.39 µM
same,TGI,SF-295 CNS,4.21 µM
same,GI50,SN12C renal,0.493 µM
same,TGI,SN12C renal,10 µM
same,GI50,SK-MEL-5 melanoma,2.3 µM
same,TGI,SK-MEL-5 melanoma,11.2 µM
same,GI50,SK-MEL-28 melanoma,12 µM
same,TGI,SK-MEL-28 melanoma,24.5 µM
same,GI50,786-0 renal,1.82 µM
same,TGI,786-0 renal,6.42 µM
same,GI50,HT29 colon,4.94 µM
same,TGI,HT29 colon,19.1 µM
same,GI50,MOLT-4 leukemia,1.84 µM
same,TGI,MOLT-4 leukemia,5.62 µM
same,GI50,CAKI-1 renal,1.28 µM
same,TGI,CAKI-1 renal,2.69 µM
same,GI50,BT-549 breast,0.813 µM
same,TGI,BT-549 breast,2.56 µM
same,GI50,MDA-MB-435 melanoma,11.7 µM
same,TGI,MDA-MB-435 melanoma,24.1 µM
same,GI50,HCT-116 colon,4.04 µM
same,TGI,HCT-116 colon,17.3 µM
same,GI50,SR leukemia,2.13 µM
same,TGI,SR leukemia,5.27 µM
same,GI50,MDA-MB-468 breast,1.74 µM
same,TGI,MDA-MB-468 breast,4.8 µM
same,GI50,UACC-62 melanoma,5.55 µM
same,TGI,UACC-62 melanoma,18.5 µM
same,GI50,SNB-19 CNS,3.69 µM
same,TGI,SNB-19 CNS,18.1 µM
same,GI50,HS 578T breast,0.253 µM
same,TGI,HS 578T breast,1.58 µM
same,GI50,SF-268 CNS,1.38 µM
same,TGI,SF-268 CNS,3.69 µM
same,GI50,NCI-H322M lung,2.12 µM
same,TGI,NCI-H322M lung,11.1 µM
same,GI50,MCF7 breast,2 µM
same,TGI,MCF7 breast,14.4 µM
same,GI50,SK-OV-3 ovarian,0.605 µM
same,TGI,SK-OV-3 ovarian,2.64 µM
same,GI50,OVCAR-5 ovarian,2.31 µM
same,TGI,OVCAR-5 ovarian,13.9 µM
same,GI50,UACC-257 melanoma,15.7 µM
same,TGI,UACC-257 melanoma,29.3 µM
